Experiment [1] is described as follows: luciferase reporter signal suppression in cells – H4 neuroglioma cells, luminescence, dose response (AID 1990). The format is functional, cell-based. (In general: A reporter such as luciferase makes a cellular process visible.)
Experiment [2] concerns Streptococcus sp. 'group A'. Kind of experiment: Streptococcus pyogenes SK(-)GAS viability under kanamycin – luminescence, BacTiterGlo, confirmation, counter-screen for streptokinase expression inhibitor project, dose response (AID 1900). The experiment is classed as functional, organism-based.
Experiment [3] in a line: alpha-synuclein stem-loop luciferase translation blockers – H4 neuroglioma cells, luminescence, confirmation (AID 1988). The format is functional, cell-based.
A short description of experiment [4]: fluconazole-exposed Candida albicans growth modulators – fluorescence, retest, confirmation (AID 2467). The format is functional, cell-based.
The nature of experiment [5]: microbe, parasite or virus in culture. The settings on record: Mycobacterium tuberculosis. The experiment is classed as functional.
The subject of experiment [6] is Streptococcus. Kind of experiment: GAS UMAA2166 growth inhibition – luminescence, BacTiterGlo, counter-screen for streptokinase expression inhibitor project, dose response (AID 1915).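 Further: potency for reduction of bacterial viability or growth.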 The experiment is classed as functional, organism-based. (In general: The purpose of a counterscreen is to sort out artefacts and off-target activity.)
The target of experiment [7] is T1, Bcl-2-related protein A1 (Mus musculus, UniProt Q07440).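 Further: confirmatory dose–response counterscreen on Bfl-1, used to check hits from a UBC13 polyubiquitin inhibitor campaign.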
T1 sequence (Q07440 whole entry): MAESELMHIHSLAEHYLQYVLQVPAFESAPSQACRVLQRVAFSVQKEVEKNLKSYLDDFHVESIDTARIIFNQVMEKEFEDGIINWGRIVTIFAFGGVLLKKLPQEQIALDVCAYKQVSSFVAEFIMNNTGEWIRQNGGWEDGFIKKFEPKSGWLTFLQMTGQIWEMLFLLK
The experiment is classed as functional.

Experiment [8] concerns the target T2, Apoptotic protease-activating factor 1 (Homo sapiens, UniProt O14727).
T2 sequence (O14727 whole entry): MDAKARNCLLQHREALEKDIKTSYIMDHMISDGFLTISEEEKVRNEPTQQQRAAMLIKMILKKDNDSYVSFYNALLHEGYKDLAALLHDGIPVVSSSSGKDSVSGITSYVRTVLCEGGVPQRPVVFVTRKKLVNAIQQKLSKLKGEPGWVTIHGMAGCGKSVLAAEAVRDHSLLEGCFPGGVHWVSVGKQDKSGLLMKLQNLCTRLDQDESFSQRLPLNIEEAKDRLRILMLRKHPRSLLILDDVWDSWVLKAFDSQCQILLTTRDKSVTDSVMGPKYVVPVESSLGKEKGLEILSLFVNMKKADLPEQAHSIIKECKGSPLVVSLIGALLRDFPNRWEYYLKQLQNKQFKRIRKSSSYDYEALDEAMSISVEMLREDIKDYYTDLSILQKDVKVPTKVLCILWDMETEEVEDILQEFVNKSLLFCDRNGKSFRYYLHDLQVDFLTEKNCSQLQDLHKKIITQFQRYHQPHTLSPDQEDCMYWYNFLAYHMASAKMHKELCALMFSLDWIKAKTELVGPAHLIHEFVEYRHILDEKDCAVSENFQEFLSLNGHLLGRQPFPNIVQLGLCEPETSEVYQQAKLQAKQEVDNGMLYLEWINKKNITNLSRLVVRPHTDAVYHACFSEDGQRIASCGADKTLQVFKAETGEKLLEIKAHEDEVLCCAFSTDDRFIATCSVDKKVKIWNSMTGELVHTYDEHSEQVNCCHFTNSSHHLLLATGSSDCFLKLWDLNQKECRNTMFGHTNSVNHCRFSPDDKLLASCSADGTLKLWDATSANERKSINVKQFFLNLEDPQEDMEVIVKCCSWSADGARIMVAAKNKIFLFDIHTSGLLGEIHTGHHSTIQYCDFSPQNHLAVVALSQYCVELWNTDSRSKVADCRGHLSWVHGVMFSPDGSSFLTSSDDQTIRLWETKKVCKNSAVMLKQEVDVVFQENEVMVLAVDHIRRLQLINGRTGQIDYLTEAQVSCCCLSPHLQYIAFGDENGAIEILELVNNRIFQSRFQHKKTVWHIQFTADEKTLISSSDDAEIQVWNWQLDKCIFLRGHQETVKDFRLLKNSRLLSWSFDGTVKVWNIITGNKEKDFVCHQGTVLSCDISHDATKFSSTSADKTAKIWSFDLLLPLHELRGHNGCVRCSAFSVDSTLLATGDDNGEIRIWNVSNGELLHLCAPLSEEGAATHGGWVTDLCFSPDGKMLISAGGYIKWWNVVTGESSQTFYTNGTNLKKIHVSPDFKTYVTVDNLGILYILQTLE
The experiment is classed as functional.

For experiment [9], the system named is INS1. The experiment is described as follows: INS-1E survival protection against cytokine death – cell-based, luminescence, retest, dose response (AID 449756).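 Further: cell death triggered by IL-1 beta plus TNF-alpha plus IFN-gamma mixture; protective hits raise ATP signal compared with cytokine alone wells.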 The format is functional. As to conditions: Rattus norvegicus.
Experiment [10] has as its target 72 kDa type IV collagenase (Homo sapiens, UniProt P08253). Kind of experiment: Dose Response validation of uHTS RPN11 inhibitor hits using a MMP-2 Fluorescence assay. The format is functional.
Experiment [11] has as its target T3, Small ubiquitin-related modifier 1 (Homo sapiens, UniProt P63165). Kind of experiment: SUMO1 protein interaction blockers, potency – biochemical, fluorescence polarization, uHTS hits, dose response (AID 624382). The experiment is classed as functional. The settings on record: read-out: IC50_Mean. (Fluorescence polarisation rises when a labelled molecule tumbles more slowly, as on binding a larger partner.)

Experiment [12] concerns the target T3, Small ubiquitin-related modifier 1. The experiment is described as follows: SUMO1 protein-protein binding blockers, potency – biochemical, FRET, dose response (AID 624383). The format is functional. The settings on record: read-out: IC50_Mean.
The nature of experiment [13]: viability loss in HeLa cells – cytotoxicity control for MgcRacGAP inhibitor project, dose response (AID 624300). The experiment is classed as functional.
Experiment [14] deals with T4, DNA repair protein RAD52 homolog (Homo sapiens, UniProt P43351).
T4 sequence (P43351 whole entry): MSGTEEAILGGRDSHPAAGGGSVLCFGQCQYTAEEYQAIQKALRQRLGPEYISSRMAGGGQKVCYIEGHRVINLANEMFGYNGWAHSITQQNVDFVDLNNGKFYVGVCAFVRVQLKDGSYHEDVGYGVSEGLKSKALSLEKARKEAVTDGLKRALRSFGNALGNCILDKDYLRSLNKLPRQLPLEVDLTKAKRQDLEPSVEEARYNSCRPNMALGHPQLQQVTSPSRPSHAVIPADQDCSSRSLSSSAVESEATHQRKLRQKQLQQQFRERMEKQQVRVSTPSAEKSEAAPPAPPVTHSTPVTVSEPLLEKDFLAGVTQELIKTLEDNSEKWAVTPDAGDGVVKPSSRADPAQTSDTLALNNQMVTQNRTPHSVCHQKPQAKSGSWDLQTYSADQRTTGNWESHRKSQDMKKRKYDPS
The experiment is classed as functional, biochemical.

Experiment [15] concerns the target T5, Caspase-6 (Homo sapiens, UniProt P55212).
T5 sequence (P55212 whole entry): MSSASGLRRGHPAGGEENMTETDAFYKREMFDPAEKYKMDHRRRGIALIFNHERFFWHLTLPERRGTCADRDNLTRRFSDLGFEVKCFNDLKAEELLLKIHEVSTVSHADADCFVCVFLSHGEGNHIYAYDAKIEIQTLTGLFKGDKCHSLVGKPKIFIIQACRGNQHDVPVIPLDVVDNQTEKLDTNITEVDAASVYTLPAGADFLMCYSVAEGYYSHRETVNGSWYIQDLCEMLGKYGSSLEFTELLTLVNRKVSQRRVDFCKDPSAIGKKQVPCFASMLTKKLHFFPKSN
The experiment is described as follows: inhibition of CASP6 peptide cleavage – biochemical, VEID-R110 fluorescence, cherry-pick, dose response (AID 720632).

Molecules are shown by their SMILES. Activity calls are given as the source filed them. Bounds are passed on as bounds.

T3 sequence (P63165 whole entry): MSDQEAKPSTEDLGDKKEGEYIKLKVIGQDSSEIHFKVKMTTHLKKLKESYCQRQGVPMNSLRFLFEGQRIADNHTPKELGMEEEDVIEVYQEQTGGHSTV
Sequence of 72 kDa type IV collagenase (P08253 whole entry): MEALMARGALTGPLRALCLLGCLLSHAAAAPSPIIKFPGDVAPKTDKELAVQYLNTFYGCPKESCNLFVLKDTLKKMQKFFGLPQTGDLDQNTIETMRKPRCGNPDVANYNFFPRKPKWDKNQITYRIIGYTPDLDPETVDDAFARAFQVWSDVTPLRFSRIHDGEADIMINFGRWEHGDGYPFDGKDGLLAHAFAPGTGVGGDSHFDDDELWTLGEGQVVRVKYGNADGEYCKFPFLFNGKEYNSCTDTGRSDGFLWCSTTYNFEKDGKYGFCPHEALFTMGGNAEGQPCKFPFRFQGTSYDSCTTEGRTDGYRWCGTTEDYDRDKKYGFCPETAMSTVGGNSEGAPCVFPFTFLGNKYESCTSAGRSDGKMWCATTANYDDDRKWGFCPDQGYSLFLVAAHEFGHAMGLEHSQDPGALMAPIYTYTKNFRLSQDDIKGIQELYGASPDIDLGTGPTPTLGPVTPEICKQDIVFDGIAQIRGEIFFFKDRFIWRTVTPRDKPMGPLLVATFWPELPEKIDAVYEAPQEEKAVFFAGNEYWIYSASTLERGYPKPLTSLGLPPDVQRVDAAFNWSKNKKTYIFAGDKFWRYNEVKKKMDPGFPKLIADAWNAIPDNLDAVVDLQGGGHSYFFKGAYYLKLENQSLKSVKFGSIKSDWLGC

As for `N=C(N)N/N=C/c1ccc(N(c2ccccc2)c2ccccc2)cc1`, the EC50 (in general, the concentration needed to bring the measured effect to its halfway point) in experiment [1] was 8.89 µM (active); in [2] it was 2.39 µM (active); in experiment [3], 10.4 µM (active); in experiment [4], 5.12 µM (active); in [6], 3.39 µM (active). The CC50 was 6.42 µM (active) in experiment [5] and 17.1 µM (active) in experiment [13]. Besides, the IC50 in experiment [7] was 3.85 µM (active); in [8], 28.2 µM (active); in experiment [10] it was 66.3 µM (active); in [11], > 66.6 µM (inactive); in [12] it was 8.67 µM (active). Besides, the AC50 (in general, the midpoint of the concentration-response curve, whichever way the signal moves) in [9] is 7.12 µM (active); in experiment [14], 10.8 µM (active); in [15] it was 10.1 µM (active).

(Values after ChEMBL document CHEMBL1201862, “PubChem BioAssay data set” (2004).)
